Data as given in ChEMBL document CHEMBL1137071, “Phenyl thiazolyl urea and carbamate derivatives as new inhibitors of bacterial cell-wall biosynthesis” (Bioorg Med Chem Lett, 2004).
In brackets after ≈: the same amount, converted by molar mass.

Columns and labels:
Assay type in all cases: functional
Enterococcus faecalis [1] = experiment: Antimicrobial activity against Enterococcus faecalis GC 2242 (VRE)
Escherichia coli [2] = experiment: Antimicrobial activity against Escherichia coli GC 4559
Escherichia coli [3] = experiment: Antimicrobial activity against Escherichia coli GC 4560
Enterococcus faecalis [4] = experiment: Antimicrobial activity against Enterococcus faecalis GC 4555 (ATCC)
[5] = Inhibitory activity against MurA from Escherichia coli
[6] = Inhibitory activity against MurB from Escherichia coli
[7] = Antimicrobial activity against MSCNS (methicillin-susceptible coagulase-negative staphylococci) GC 646; details: Staphylococcus
Staphylococcus aureus [8] = experiment: Antimicrobial activity against Staphylococcus aureus GC 1131 (MRSA)
Staphylococcus aureus [9] = experiment: Antimicrobial activity against Staphylococcus aureus GC 2216 (ATCC)
Staphylococcus aureus [10] = experiment: Antimicrobial activity against Staphylococcus aureus GC 4543 (MSSA)
Streptococcus pneumoniae [11] = experiment: Antimicrobial activity against Streptococcus pneumoniae GC1894 (PRSP) in the presence of 4% bovine serum albumin
Streptococcus pneumoniae [12] = experiment: Antimicrobial activity against Streptococcus pneumoniae GC1894 (PRSP)
[13] = Inhibitory activity against MurB from Staphylococcus aureus

Row | SMILES | MIC (Enterococcus faecalis [1]) | MIC (Escherichia coli [2]) | MIC (Escherichia coli [3]) | MIC (Enterococcus faecalis [4]) | IC50 [5] | IC50 [6] | MIC [7] | MIC (Staphylococcus aureus [8]) | MIC (Staphylococcus aureus [9]) | MIC (Staphylococcus aureus [10]) | MIC (Streptococcus pneumoniae [11]) | MIC (Streptococcus pneumoniae [12]) | IC50 [13]
1 | N#Cc1cnc(NC(=O)Nc2ccc(F)c(F)c2)s1 | 4 µg/mL (≈ 14.3 µM) | 8 µg/mL (≈ 28.5 µM) | 4 µg/mL (≈ 14.3 µM) | 4 µg/mL (≈ 14.3 µM) | > 25 µg/mL | 19 µg/mL (≈ 67.8 µM) | 4 µg/mL (≈ 14.3 µM) | 4 µg/mL (≈ 14.3 µM) | 4 µg/mL (≈ 14.3 µM) | 2 µg/mL (≈ 7.14 µM) | 64 µg/mL | 0.5 µg/mL (≈ 1.78 µM) | –
2 | COc1nc(NC(=O)Nc2ccc(Cl)c(Cl)c2)sc1C#N | 4 µg/mL (≈ 11.7 µM) | > 128 µg/mL | > 128 µg/mL | 32 µg/mL (≈ 93.2 µM) | 21.6 µg/mL (≈ 62.9 µM) | 9.8 µg/mL (≈ 28.6 µM) | > 128 µg/mL | > 128 µg/mL | > 128 µg/mL | > 128 µg/mL | > 128 µg/mL | > 128 µg/mL | –
3 | N#Cc1sc(NC(=O)Nc2ccc(Cl)c(Cl)c2)nc1N1CCOCC1 | 128 µg/mL (≈ 321 µM) | > 128 µg/mL | > 128 µg/mL | > 128 µg/mL | > 25 µg/mL | > 25 µg/mL | > 128 µg/mL | > 128 µg/mL | > 128 µg/mL | > 128 µg/mL | > 128 µg/mL | > 128 µg/mL | 13 µg/mL (≈ 32.6 µM)
4 | CC(C)(C)c1nc(NC(=O)NCc2ccc(Cl)c(Cl)c2)sc1C#N | 0.5 µg/mL (≈ 1.3 µM) | > 128 µg/mL | 2 µg/mL (≈ 5.22 µM) | 1 µg/mL (≈ 2.61 µM) | 20.8 µg/mL (≈ 54.3 µM) | > 25 µg/mL | 1 µg/mL (≈ 2.61 µM) | 1 µg/mL (≈ 2.61 µM) | 0.25 µg/mL (≈ 0.652 µM) | 0.5 µg/mL (≈ 1.3 µM) | 128 µg/mL | < 0.12 µg/mL | 11 µg/mL (≈ 28.7 µM)
5 | CC(C)COc1nc(NC(=O)Nc2ccc(Cl)c(Cl)c2)sc1C#N | 0.25 µg/mL (≈ 0.649 µM) | > 128 µg/mL | > 128 µg/mL | 0.25 µg/mL (≈ 0.649 µM) | > 25 µg/mL | 5.8 µg/mL (≈ 15.1 µM) | 0.25 µg/mL (≈ 0.649 µM) | 0.5 µg/mL (≈ 1.3 µM) | 0.5 µg/mL (≈ 1.3 µM) | 0.25 µg/mL (≈ 0.649 µM) | 128 µg/mL | < 0.12 µg/mL | –
6 | Cc1ccc(NC(=O)Nc2nc(C(C)(C)C)c(C#N)s2)cc1C | 0.5 µg/mL (≈ 1.52 µM) | > 128 µg/mL | 2 µg/mL (≈ 6.09 µM) | 0.5 µg/mL (≈ 1.52 µM) | > 25 µg/mL | 6.2 µg/mL (≈ 18.9 µM) | 0.5 µg/mL (≈ 1.52 µM) | 0.5 µg/mL (≈ 1.52 µM) | 0.25 µg/mL (≈ 0.761 µM) | 0.25 µg/mL (≈ 0.761 µM) | 128 µg/mL | < 0.12 µg/mL | 6.3 µg/mL (≈ 19.2 µM)
7 | CN[C@H](CC(C)C)C(=O)N[C@H]1C(=O)N[C@@H](CC(N)=O)C(=O)N[C@H]2C(=O)N[C@H]3C(=O)N[C@H](C(=O)N[C@H](C(=O)O)c4cc(O)cc(O)c4-c4cc3ccc4O)[C@H](O)c3ccc(c(Cl)c3)Oc3cc2cc(c3O[C@@H]2O[C@H](CO)[C@@H](O)[C@H](O)[C@H]2O[C@H]2C[C@](C)(N)[C@H](O)[C@H](C)O2)Oc2ccc(cc2Cl)[C@H]1O [VANCOMYCIN] | > 128 µg/mL | > 128 µg/mL | 0.25 µg/mL (≈ 0.173 µM) | 2 µg/mL (≈ 1.38 µM) | – | – | – | – | – | – | – | < 0.12 µg/mL | –

Now from value to molecule:

Row | MIC (Enterococcus faecalis [1]) | MIC (Escherichia coli [2]) | MIC (Escherichia coli [3]) | MIC (Enterococcus faecalis [4]) | IC50 [5] | IC50 [6] | MIC [7] | MIC (Staphylococcus aureus [8]) | MIC (Staphylococcus aureus [9]) | MIC (Staphylococcus aureus [10]) | MIC (Streptococcus pneumoniae [11]) | MIC (Streptococcus pneumoniae [12]) | IC50 [13] | SMILES
8 | 1 µg/mL (≈ 3 µM) | > 128 µg/mL | 2 µg/mL (≈ 6 µM) | 1 µg/mL (≈ 3 µM) | 4.6 µg/mL (≈ 13.8 µM) | 3.8 µg/mL (≈ 11.4 µM) | 0.5 µg/mL (≈ 1.5 µM) | 1 µg/mL (≈ 3 µM) | 0.25 µg/mL (≈ 0.75 µM) | 0.5 µg/mL (≈ 1.5 µM) | 128 µg/mL | 0.25 µg/mL (≈ 0.75 µM) | 3 µg/mL (≈ 9 µM) | O=C(Nc1ccc(Cl)c(Cl)c1)Nc1ncc([N+](=O)[O-])s1
9 | 0.5 µg/mL (≈ 1.6 µM) | > 128 µg/mL | 4 µg/mL (≈ 12.8 µM) | 1 µg/mL (≈ 3.19 µM) | 12.6 µg/mL (≈ 40.2 µM) | 4.5 µg/mL (≈ 14.4 µM) | 1 µg/mL (≈ 3.19 µM) | 1 µg/mL (≈ 3.19 µM) | 0.5 µg/mL (≈ 1.6 µM) | 0.5 µg/mL (≈ 1.6 µM) | 128 µg/mL | < 0.12 µg/mL | 5.6 µg/mL (≈ 17.9 µM) | N#Cc1cnc(NC(=O)Nc2ccc(Cl)c(Cl)c2)s1
10 | 2 µg/mL (≈ 6.39 µM) | > 128 µg/mL | 8 µg/mL (≈ 25.5 µM) | 8 µg/mL (≈ 25.5 µM) | > 25 µg/mL | > 25 µg/mL | 4 µg/mL (≈ 12.8 µM) | 8 µg/mL (≈ 25.5 µM) | 4 µg/mL (≈ 12.8 µM) | 4 µg/mL (≈ 12.8 µM) | 128 µg/mL | < 0.12 µg/mL | 14 µg/mL (≈ 44.7 µM) | N#Cc1csc(NC(=O)Nc2ccc(Cl)c(Cl)c2)n1
11 | 4 µg/mL (≈ 13.9 µM) | > 128 µg/mL | 0.5 µg/mL (≈ 1.74 µM) | 4 µg/mL (≈ 13.9 µM) | 20 µg/mL (≈ 69.4 µM) | > 25 µg/mL | 2 µg/mL (≈ 6.94 µM) | 2 µg/mL (≈ 6.94 µM) | 2 µg/mL (≈ 6.94 µM) | 2 µg/mL (≈ 6.94 µM) | > 128 µg/mL | 0.5 µg/mL (≈ 1.74 µM) | > 25 µg/mL | O=C(Nc1ccc(Cl)c(Cl)c1)Nc1nccs1
